RP-LC retention time data for 33 compounds are collected here from the METLIN SMRT retention time set (Domingo-Almenara et al. 2019).

This data set in a line: gradient 5% acetonitrile 3 min, to 50% in 2 min, to 85% in 15 min, held 3 min, 100 µL/min. The settings on record: column: Zorbax Extend-C18 2.1 x 50 mm; eluents: water / acetonitrile, 0.1% formic acid. The gist of the method:
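Standards, all pure, were combined into mixtures of ~100 molecules and run at 100 μL/min on a Zorbax Extend-C18 column (2.1 × 50 mm, 1.8 μm) with water and acetonitrile, each containing 0.1% formic acid. A coupled quadrupole time-of-flight mass spectrometer operated in positive and negative ionization mode. Retention time values come from computationally picked adduct peaks, each inspected manually.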
Take `Cn1cc(CCNC(=O)Nc2ccccc2C(F)(F)F)c2cccnc21`: the RP-LC retention time turned out to be 779 s.

`Cc1cc2c(cc1CNC(=O)c1ccco1)OCCCO2` had an RP-LC retention time of 750 s.

In turn, `COc1ccc(C(=O)Nc2nc(-c3ccc4c(c3)N(C)C(=O)CO4)cs2)cc1OC` yielded an RP-LC retention time of 785 s. The same measure for `Cc1ccc(C)c(NC(=O)Cn2nc(N3CCCC(C)C3)c3ccccc3c2=O)c1` (stereo not drawn): 1160 s; for `CCc1ccc(CN2C(=O)c3ccccc3C2C(=O)NCCCOC)cc1` (stereo not drawn): 819 s. The same measure for `COc1ccccc1NC(=O)Nc1cc(C(C)C)ccc1C`: 1160 s. As for `CC(C)N(C(=O)Cn1c(CN(C)C(=O)c2ccco2)nc2ccccc21)c1ccccc1`, the figure is 725 s; as for `Cc1oc(C2CCN(S(=O)(=O)c3ccc(C#N)cc3)CC2)nc1C(=O)N(C)C`, 762 s; as for `COc1ccccc1NC(=O)c1cn2c(n1)CCCC2`, 622 s.

`O=C(C1CCCCC1)N1CCc2nc(-c3ccc(Cl)cc3)ncc2C1` displayed an RP-LC retention time of 1180 s.

`CCCN(CCC)C(=O)C1CCN(S(=O)(=O)c2ccc3c(c2)CCCC(=O)N3)CC1`: the RP-LC retention time came out at 694 s. Turning to `COc1ccc(-c2csc(Cc3nc(-c4ccc(Cl)cc4)no3)n2)cc1`, the RP-LC retention time is 1290 s. The same measure for `COc1ccc(/C=C/c2nc(-c3cccc(-c4ccnn4C)c3)no2)cc1OC`: 1050 s; for `COc1ccc(-c2cc(N3CCC(NC(=O)c4ccc(C#N)cc4)C3)n[nH]2)cc1` (stereo not drawn): 685 s; for `CCOC(=O)C1CCN(C(=O)c2nc(N3CCCCC3)c3c(C)cc(C)nc3n2)CC1`: 595 s. The same measure for `O=C(c1ccc(CS(=O)(=O)c2ccc(Br)cc2)o1)N1CCN(c2ccccn2)CC1`: 616 s; for `CCCCN(C)c1ncc(C(=O)NCc2ccccc2)c(N)n1`: 690 s; for `COc1cccc(COc2cn(C)c(C(=O)N3CCN(c4ncccn4)CC3)cc2=O)c1`: 605 s.

`CC(C)n1cnc(S(=O)(=O)N2CCC(C(=O)N3CCN(c4ccccn4)CC3)CC2)c1` had an RP-LC retention time of 571 s. As for `COc1ccc(-n2ncc3c(=O)n(Cc4nc(-c5cccc(Br)c5)no4)cnc32)cc1`, the figure is 1110 s; as for `CCN1CCC(N(Cc2cccs2)C(=O)Nc2cc(OC)c(OC)c(OC)c2)CC1`, 628 s.

As to `CCCN1C(=O)c2c(C(=O)NCc3ccc(Cl)cc3)ncn2CC1(C)C(=O)NCCC(C)C` (stereo not drawn), the RP-LC retention time came to 868 s. The same measure for `Cc1ccc(NC(=O)c2cnc3c(c2)c(=O)n(C)c(=O)n3-c2ccc(F)cc2)cc1`: 936 s. The same measure for `COc1ccc(CCNC(=O)CSc2nnc(Cc3csc(N)n3)n2C)cc1OC`: 539 s; for `Cn1cc(C(=O)NCc2ccccc2Cl)c(S(=O)(=O)N2CCSCC2)n1`: 890 s.

Take `CCC(=O)NCc1nc2c(n1C)CN(S(=O)(=O)c1cc(F)ccc1F)CC2`: the RP-LC retention time was 557 s. Consider `O=C(Nc1ccc2c(c1)OCO2)c1coc(NC(=O)c2ccco2)n1`, for which the RP-LC retention time came out at 651 s. In turn, `COc1ccc(-n2ccn(CC(=O)Nc3ccc(Br)cc3)c(=O)c2=O)cc1` gave an RP-LC retention time of 728 s.

Compound `CCOC(=O)c1[nH]c(C)c(C(=O)N2CCC(CC(=O)N(C)Cc3ccco3)CC2)c1C` displayed an RP-LC retention time of 729 s.

Compound `O=C(Cc1ccc(F)cc1)NC1CCN(c2cc(-c3cccs3)[nH]n2)C1` (stereo not drawn) returned an RP-LC retention time of 707 s.

On to `COC(=O)c1c(NCc2ccccc2OC)c2cccc(Cl)c2[nH]c1=O`, for which the RP-LC retention time was 820 s. As for `Cc1ccc(NC(=O)N2CCCC(Cn3c(C4CC4)nc4cccnc43)C2)c(C)c1` (stereo not drawn), the figure is 694 s. As to `Cc1cc(C(=O)NC2CCCCCC2)n[nH]1`, the RP-LC retention time was 724 s.
